Test results taken from patent publication US9573911B2, “Diphosphate mimetics and uses thereof” (President and Fellows of Harvard College, priority 2011, dated 2017).

Assays:
[1] = molecular target: T1, OGT (Homo sapiens, UniProt O15294); assay: Time-dependent inactivation of OGT with BZX compounds; type: biochemical
T1 construct: hOGT4.5 construct (spanning residues 313-1031 based on the numbering of the full length human protein); made in house
T1 sequence (O15294 313-1031 isoform O15294-3): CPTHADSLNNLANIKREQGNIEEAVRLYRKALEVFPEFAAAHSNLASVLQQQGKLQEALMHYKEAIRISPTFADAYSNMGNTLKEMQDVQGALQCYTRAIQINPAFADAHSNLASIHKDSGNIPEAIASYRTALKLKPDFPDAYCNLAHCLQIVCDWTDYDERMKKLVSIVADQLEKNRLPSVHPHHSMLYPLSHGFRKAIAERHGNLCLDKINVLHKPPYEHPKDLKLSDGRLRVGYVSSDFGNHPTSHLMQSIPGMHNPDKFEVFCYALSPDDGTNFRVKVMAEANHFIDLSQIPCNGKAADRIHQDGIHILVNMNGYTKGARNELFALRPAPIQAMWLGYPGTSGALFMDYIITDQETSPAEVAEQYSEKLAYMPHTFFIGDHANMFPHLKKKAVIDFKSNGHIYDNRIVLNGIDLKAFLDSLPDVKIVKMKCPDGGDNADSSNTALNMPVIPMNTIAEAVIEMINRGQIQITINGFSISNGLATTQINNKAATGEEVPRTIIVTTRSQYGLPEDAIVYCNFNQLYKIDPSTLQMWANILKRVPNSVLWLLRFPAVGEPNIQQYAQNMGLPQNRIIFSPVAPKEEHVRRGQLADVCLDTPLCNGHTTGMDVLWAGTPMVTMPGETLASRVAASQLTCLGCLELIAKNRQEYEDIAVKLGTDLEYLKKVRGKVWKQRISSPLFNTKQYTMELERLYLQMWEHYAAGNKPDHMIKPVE
Description: Compound (1) was identified in a high-throughput screen of 65,000 compounds (FIG. 1). See, e.g., Gross et al., J. Am. Chem. Soc. (2005) 127:14588-14589. It contains a dicarbamate moiety that links two aromatic groups. This compound features a conjugated chemical structure and both carbamate carbonyls are potentially reactive. See, e.g., Alexander et al., Chem. Biol. (2005) 12:1179-1187. […] A small panel of related compounds was made from commercially available building blocks in order to identify structural features that might improve potency. Time-dependent inactivation studies were carried out in which OGT was preincubated with a three-fold excess of each compound for 5 min, and the mixture was then diluted 100-fold into buffer containing UDP-^14C-GlcNAc and the well-characterized peptide substrate, CKII. See, e.g., Kreppel et al., J. Biol. Chem. (1999) 274:32015-32022). Enzyme activity was measured using a previously developed peptide capture assay. See, e.g., Gross et al., J. Am. Chem. Soc. (2005) 127:14588-14589.
Each BZX compound (7.5 μM) was preincubated with 5 μM OGT in reaction buffer (125 mM NaCl, 1 mM EDTA, 20 mM potassium phosphate, pH 7.4, and 500 μM tris(hydroxypropyl)phosphine (THP)) at room temperature for different amount of time, then diluted 100-fold, mixed with substrates (6 μM UDP-^14C-GlcNAc and 500 μM CKII peptide (KKKYPGGSTPVSSANMM)) and allowed to react for another 2 h. Enzyme activity was tested with the peptide capture assay as previously reported. See, e.g., Gross et al., J. Am. Chem. Soc. (2005) 127:14588-14589. The final volume of each reaction was 20 μl, and the experiments were conducted in triplicate. The activities of OGT mutants were also tested in triplicate as previously reported. See, e.g., Gross supra.

[2] = molecular target: T1, OGT; assay: IC50 assay, OGT peptide-capture assay; type: biochemical; details: peptide-capture assay, different concentrations of each compound, read-out: IC50 Values
Experimental: IC50 Assay of Thiocarbamate to OGT.
Enzyme activity was tested with the peptide-capture assay in the presence of different concentrations of each compound as previously reported (J. Am. Chem. Soc. 2005, 127, 14588-14589).

IC50 [2] [µM] | inactivation time course of OGT ([1]; 1.5:1 inhibitor:enzyme ratio) | SMILES | OGT enzyme activity after preincubation with compound ([1]; three-fold excess of compound, 5 min preincubation, then diluted 100-fold)
 |  | COc1ccc(OC(=O)n2c(=O)oc3cc(C(C)=O)ccc32)cc1 [Compound 1] | irreversible loss of enzyme activity
18 |  | COc1ccc(OC(=O)n2c(=O)oc3ccc(Cl)cc32)cc1 [Compound 3] | 
60 |  | O=C(Oc1ccccc1)n1c(=O)oc2cc([N+](=O)[O-])ccc21 [Compound 4] | 
> 100 |  | O=C(Oc1ccccc1)n1c(=O)oc2ccccc21 [Compound 5] | 
~100 | no inhibition | COc1ccc2c(c1)oc(=O)n2C(=O)Oc1ccccc1 [Compound 6] | 
